Patent US7019000B1, “Method of treating a disease condition caused or exacerbated by an HPV” (Institute of Molecular & Cell Biology, priority 1998, dated 2006)

Experiments:
[1] = biological target: T1, HPV-16-E6 (recombinant GST-E6 protein) (Human papillomavirus type 16, UniProt P03126); assay: biochemical; format: biochemical; conditions: read-out: TSQ % (% values of Zinc release)
T1 construct: The full length HPV16 E6 gene was amplified via polymerase chain reaction and cloned in the vector pGeX4T2; made in house; host or cells: E. coli strain AB1899
Text: Where the chelated metal is zinc, zinc release can be measured as an increase in the fluorescence of the zinc-selective fluorophore TSQ (N-(6-methoxy-8-quinolyl)-p-toluenesulfonamide) (18) in the presence of the protein and the active compound (TSQ assay).
In such an assay, the increase in fluorescence measured can be described as a percentage of the increase in fluorescence observed for a positive control compound which provides 100% zinc release. A suitable positive control compound is H2O2. Preferred compounds which may be useful in the present invention are those which release at least 30% of the chelated zinc as measured by the TSQ assay. Particularly preferred compounds for use in the present invention are those which release at least 40% of the chelated zinc, more preferably at least 50%.
In earlier studies, reduced glutathione (GSH) was required to elute recombinant glutathione sulfhydryl transferase E6 (recombinant (GST-E6)) protein during the purification process. However, the reducing activity of the GSH sulfhydryl groups protected GST-E6 protein from the chemical attack by agents, such as the disulphide based organic compounds of Formula (I) and (II). […] Individual assays were done in the presence of 9 μg GST-E6 protein, corresponding to a concentration of 1 μM GST-E6 protein and 2 μM bound zinc, assuming the presence of two Zn ions per protein.
Release of zinc from HPV-16-E6 was monitored by the change in fluorescence of the zinc-selective fluorophore TSQ (N-6-methoxy-8-quinolyl)-p-toluenesulfonamide), (Molecular Probes, Eugene, Oreg.) by modification of published procedures (25, 26, 27). In a total reaction volume of 200 μl, 9 μg (1 μM) recombinant GST-E6 protein (corresponding to a concentration of 1 μM), bound to glutathione-sepharose beads, were incubated with 10 μM of each compound or 0.6% (170 mM) H2O2 in TSQ-assay buffer (10 mM sodium phosphate buffer pH7.0, 10% glycerol) for 2 hours at room temperature (200 μl total volume in 96-well plates). Immediately after addition of 100 μM TSQ, the increase in fluorescence was measured on a SLT Fluostar (355 nm excitation filter and 460 nm emission filter, Tecan, Salzburg).
Values given are % values of Zinc release. The relative fluorescence units (RFU) were normalized to the amount of zinc released by H2O2 (regarded as 100%). The concentration of compound used was 10 μM for C27–C35, 13 μM for C37–C83, H2O2 was used at 0.3% for C27–C35 and 0.2% for C37–C83.

[2] = biological target: T2, binding of E6 with E6AP and E6BP (Human papillomavirus type 16, UniProt P03126); design: species or system HPV-16; conditions: for BIACORE (E6BP/E6AP): 400 μM compound, 2 hrs at room temperature, GST-E6 7 μM in 10 mM GSH; for complex formation of GST-E6 with GST-E6AP/GST-E6BP, controls: 5 mM EDTA or 0.6% (170 mM) H2O2, 2 hrs at room temperature
T2 construct: The full length HPV16 E6 gene was amplified via polymerase chain reaction and cloned in the vector pGeX4T2; made in house; host or cells: E. coli strain AB1899
Text: BIACORE allows real time analysis of bimolecular interactions without the need for isotopic or enzymatic labelling. BIACORE technology is based on the optical surface plasmon resonance (SPR), a technique that allows for detecting small changes in the refractive index on the surface of a thin gold film coated with a dextran matrix. Typically, one of the binding partners (termed the ligand) is covalently linked to the dextran matrix, while the other partner (termed the analyte) is introduced in a flow passing over the surface. The change in refractive index resulting from the interaction of the molecules is expressed in resonance units (RU): a SPR response of 1000 RU corresponds to a change of the surface concentration of the analyte of 1 ng protein/mm^2. GST-E6AP and GST-E6BP were used as ligands and GSTE6 was used as the analyte. […] Further controls included using the dextran matrix alone or GST as the ligand.
Binding of GST-E6 to GST-E6BP, GST-E6AP and GST was monitored by surface plasmon resonance (SPR) on a BIACORE 2000 machine (Biacore AB, Uppsala, Sweden). […] Typically 6000–10000 RU of GST, E6BP and E6AP were immobilized on three difference flowcells. Aliquots of purified HPV-16 GST-E6 (7 μM in 10 mM GSH, 50 mM Tris/PBS buffer, pH 8.2) were incubated with either 400 μM compound, or 5 mM EDTA, or 0.6% (170 mM) H2O2 for 2 hrs at room temperature. Then 10 μl of sample was injected at 1 μl/min over the three immobilized ligands using the sequential flow mode. The interactions between GST-E6 and ligands were monitored by the change of resonance signal in arbitrary units (RU).

[3] = system: HPV containing cell lines as HeLa, SiHa and Caski, compared to HPV-negative cell lines MCF7, HEPG2, (HaCat, HT3, 444); assay: Cell viability (WST1 assay), panel of HPV-positive and HPV-negative cell lines; format: cell-based, human; conditions: for WST1: 50 μM in cell culture; for WST1-spec: 50 μM, HPV containing vs HPV-negative cell lines
Method: Zinc finger proteins are required for maintenance of cell viability. Preferably, the compounds for use in the present invention are specific in their ability to affect the viability of MPV containing cells, with little or no cytotoxic effects on the cellular functioning of healthy non-MPV containing cells. The viability of MPV-infected cells (and non infected cells) in the presence of compounds of Formulae (I) or (II) can be measured by incubating with the tetrazolium salt WST1 (Roche Molecular Biochemicals, Manneheim Germany) and measuring the absorption readings thereof (WST1 assay).
All cell lines were obtained from the American Type Culture Collection (Manassas, Va.) unless otherwise noted. SiHa (human cervical epithelial tumor line, HPV16-positive), CaSki (human cervical epithelial tumor line, HPV16-positive), HaCat (immortalized human skin epithelial cell line, HPV-negative), HeLa (human cervical epithelial tumor line, HPV18-positive), 444 (hybrid of HeLa and fibroblast, HPV18-positive) obtained from Eric Stanbridge (Universitv of California, Irvine), MCF7 (human mammary epithelial tumor cell line, HPV-negative), HT3 (human cervical epithelial tumor cell line, HPV-negative) was obtained from the German Cancer Research Institute/DKFZ-Heidelberg, and HepG2, (human liver epithelial tumor cell line, HPV-negative), were grown in Dulbecco's modified Eagle medium (DMEM) supplemented with 10% fetal calf serum, 100 U penicillin and 1000 U streptomycin. Cells were allowed to attach to the surface of microwell dishes overnight and subsequently, incubated with medium containing the zinc ejecting compounds at the concentrations (10–100 μM). Viability of the cells was scored by measuring the absorption of the tetrazolium salt WST1 (Roche Molecular Biochemicals, Mannheim, Germany) in an Elisa-plate reader (Tecan, Salzburg, Austria) at a wavelength of 450 nm and a reference wavelength of 630 nm.
A total of 10 000 cells per well were plated on 24 well plates, after attachment overnight, they were treated 3 times in 3 days with C16 at 10 μM and 50 μM. The activity of C16 was also compared with that of C4 (azodicarbonamide) which causes ejection of zinc from HIV-1 NCp7 and is currently used in clinical trials for the treatment of AIDS.

T1 sequence (P03126 whole entry): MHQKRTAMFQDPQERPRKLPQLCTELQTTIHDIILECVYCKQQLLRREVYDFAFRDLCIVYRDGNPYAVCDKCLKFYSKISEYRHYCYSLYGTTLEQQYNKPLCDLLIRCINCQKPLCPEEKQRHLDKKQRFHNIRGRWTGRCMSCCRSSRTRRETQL
T2 sequence (P03126 whole entry): as above

Row | SMILES | activation at 10 µM [1] [%] | BIACORE (E6BP/E6AP) [2] | WST1 [3] | WST1-spec [3] | activation at 13 µM [1] [%] | growth inhibition ([3]; any of these six cell lines (FIG. 3)) | complex formation of GST-E6 with GST-E6AP/GST-E6BP, controls [2]
1 | S=C(SSC(=S)N1CCOCC1)N1CCOCC1 [Compound C32] | 80.9 | + (compound interferes in binding of E6 with E6AP and E6BP, binding is less than 50% of the corresponding E6-DMSO value.) | – | – | – | – | –
2 | CN1CCCN(C(=S)SSC(=S)N2CCCN(C)CC2)CC1 [Compound C35] | 106 | – | + | – | – | – | –
3 | CN1CCN(SSN2CCN(C)CC2)CC1 [Compound C39] | – | + (compound interferes in binding of E6 with E6AP and E6BP, binding is less than 50% of the corresponding E6-DMSO value.) | + | + | 45 | – | –
4 | CC1(C)COCN1SSN1COCC1(C)C [Compound C82] | – | + (compound interferes in binding of E6 with E6AP and E6BP, binding is less than 50% of the corresponding E6-DMSO value.) | + | – | 28.4 | – | –
5 | COc1ccc(N2CCN(SSN3CCN(c4ccc(OC)cc4)CC3)CC2)cc1 [Compound C71] | – | – | + | + | 0 | – | –
6 | NC(=O)N=NC(N)=O [Compound C4, azodicarbonamide, reference compound] | – | – | – | – | – | did not cause growth inhibition | –
7 | O=CN(SSN(C=O)C1CCCCC1)C1CCCCC1 [Compound R26] | 54.9 | + (compound interferes in binding of E6 with E6AP and E6BP, binding is less than 50% of the corresponding E6-DMSO value.) | + | – | – | – | –
8 | O=C1c2ccccc2C(=O)N1SSN1C(=O)c2ccccc2C1=O [Compound C27] | 103 | + (compound interferes in binding of E6 with E6AP and E6BP, binding is less than 50% of the corresponding E6-DMSO value.) | + | – | – | – | –
9 | CCOC(=O)N1CCN(SSN2CCN(C(=O)OCC)CC2)CC1 [Compound C41] | – | + (compound interferes in binding of E6 with E6AP and E6BP, binding is less than 50% of the corresponding E6-DMSO value.) | + | + | 36.8 | – | –
10 | C1CN(SSN2CCSCC2)CCS1 [Compound C38] | – | + (compound interferes in binding of E6 with E6AP and E6BP, binding is less than 50% of the corresponding E6-DMSO value.) | + | + | 41.8 | – | –
11 | CCN(CC)SSN(CC)CC [Compound C49] | – | + (compound interferes in binding of E6 with E6AP and E6BP, binding is less than 50% of the corresponding E6-DMSO value.) | + | – | 57 | – | –
12 | OO [Compound H2O2, H2O2, reference compound] | – | – | – | – | – | – | completely eliminated complex formation
13 | c1ccc(N2CCN(SSN3CCN(c4ccccn4)CC3)CC2)nc1 [Compound C55] | – | + (compound interferes in binding of E6 with E6AP and E6BP, binding is less than 50% of the corresponding E6-DMSO value.) | + | + | 50.6 | – | –
14 | CCOC(=O)CN(Cc1ccccc1)SSN(CC(=O)OCC)Cc1ccccc1 [Compound C83] | – | + (compound interferes in binding of E6 with E6AP and E6BP, binding is less than 50% of the corresponding E6-DMSO value.) | + | – | 22 | – | –
15 | O=C(O)CN(CCN(CC(=O)O)CC(=O)O)CC(=O)O [EDTA, reference compound] | – | – | – | – | – | – | completely eliminated complex formation
16 | CC1CN(SSN2CC(C)OC(C)C2)CC(C)O1 (centres unmarked) [Compound C37] | – | + (compound interferes in binding of E6 with E6AP and E6BP, binding is less than 50% of the corresponding E6-DMSO value.) | + | + | 40.3 | – | –
17 | C1CN1SSN1CC1 [Compound R24] | 71 | + (compound interferes in binding of E6 with E6AP and E6BP, binding is less than 50% of the corresponding E6-DMSO value.) | + | – | – | – | –
18 | O=[N+]([O-])c1ccc(N2CCN(SSN3CCN(c4ccc([N+](=O)[O-])cc4)CC3)CC2)cc1 [Compound C69] | – | + (compound interferes in binding of E6 with E6AP and E6BP, binding is less than 50% of the corresponding E6-DMSO value.) | – | – | 0 | – | –
19 | C1CCN(SSN2CCCCC2)CC1 [Compound C48] | – | + (compound interferes in binding of E6 with E6AP and E6BP, binding is less than 50% of the corresponding E6-DMSO value.) | + | + | 54.3 | – | –
20 | CC1CN1SSN1CC1C (centres unmarked) [Compound R25] | 30.9 | + (compound interferes in binding of E6 with E6AP and E6BP, binding is less than 50% of the corresponding E6-DMSO value.) | – | – | – | – | –
